According to PMC3856890 (Nature methods, 2013):

Molecular target: T1, Pdp (pyrimidine-nucleoside phosphorylase) (Mycoplasmoides genitalium, UniProt P47297)
T1 sequence (P47297 1-421): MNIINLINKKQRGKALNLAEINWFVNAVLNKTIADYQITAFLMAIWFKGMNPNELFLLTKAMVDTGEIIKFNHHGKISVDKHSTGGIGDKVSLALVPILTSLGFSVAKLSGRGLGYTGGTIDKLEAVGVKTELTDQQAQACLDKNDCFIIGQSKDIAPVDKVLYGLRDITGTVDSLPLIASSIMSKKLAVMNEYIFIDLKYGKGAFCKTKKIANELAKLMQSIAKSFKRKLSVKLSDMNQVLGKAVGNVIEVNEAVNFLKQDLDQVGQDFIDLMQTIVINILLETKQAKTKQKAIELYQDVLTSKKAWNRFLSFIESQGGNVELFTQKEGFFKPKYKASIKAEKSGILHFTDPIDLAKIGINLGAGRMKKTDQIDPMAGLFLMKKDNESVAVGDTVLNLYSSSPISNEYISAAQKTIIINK
Experiment: uracil production at […] nm after NaOH stop
Assay type: biochemical
Settings: 1.25-12.5 mM deoxyuridine; 10 mM phosphate; 10 mM Tris pH 7.3; 1 mM EDTA; 37 C

O=c1cc[nH]c(=O)[nH]1 [uracil]
uracil production at 290 nm after NaOH stop: We determined uracil production by A290.
